US10030027B2, “Soluble guanylate cyclase stimulators” (MERCK SHARP & DOHME CORP., priority 2015, dated 2018)

Key:
[1] = tested on: hypoxia-induced pulmonary hypertension rat; assay: Acute efficacy in hypoxia-induced pulmonary hypertension in rat following intratracheal administration; type: in vivo
Source text: Acute Efficacy in Hypoxia-Induced Pulmonary Hypertension in Rat Following Intratracheal Administration Charles River Sprague-Dawley (CD) male rats weighing approximately 350 g were implanted with HD-S21 dual pressure telemetry transmitters (Data Sciences International (DSI)) into the pulmonary artery and femoral artery. This transmitter enables simultaneous measurement of both pulmonary and systemic hemodynamic parameters in the same animal. After a 7-10 day post-operative recovery period, animals were subjected to a normobaric hypoxic (10% oxygen) environment using a Higher Peak Mountain Air Generator (MAG-10) connected to a modified rodent cage via a fitted inlet port. Oxygen (at 10%), temperature, humidity, and CO2 were controlled within normal range and animals were maintained on a 12 hour light-dark cycle with ad libitum access to food and water. After two weeks exposure to 10% O2 hypoxic environment, systolic pulmonary arterial pressure readings increased from 25 mmHg to greater than 50 mmHg. Using a 48 hour baseline average, animals with readings between 50-110 mmHg (standard deviation of less than 10 mmHg) and minimal changes in systolic systemic blood pressure were enrolled for study. Animals were utilized for up to 2 studies per week for 4 weeks with a minimum of 2 days washout between doses of test agent. Compound or vehicle was administered intra-tracheally under light isoflurane anesthesia (5% in oxygen; flow rate 2.0 L/min for 3 minutes). Once anesthetized, rats were placed on an angled intubation stand in supine position and the trachea visualized using a small laryngoscope. Animals then received either 0.5 mL/kg of vehicle or 0.5 mL/kg vehicle containing compound intra-tracheally delivered via microsprayer by use of a Penn-Century Microsprayer® needle 3″ (Model IA-1B-GP) attached to a 1 mL high pressure syringe (Penn Century-Model B-SYR-PL1000) (Penn-Century, Philadelphia, Pa.). The Microsprayer® tip was inserted into the trachea up to the point at which the bend in the needle is close to the tip of the snout, which positions the tip of the Microsprayer® in front of the carina (bifurcation of trachea at the bronchi). After dose delivery the animal is placed on its back in the home cage for recovery. Hemodynamic measurements were continuously recorded and readings consolidated to hourly moving averages. Each animal received a vehicle on Day 1 followed by vehicle or test agent on Day 2. Change from vehicle baseline was calculated by subtracting the hourly Day 1 vehicle response from the hourly Day 2 response and treatment group data was expressed as mean±SEM. Decreases of systolic blood pressure (SBP) and systolic pulmonary arterial pressure (PAP) were measured at a particular IT dose (mpk milligrams per kilogram) for the following Example compounds.

[2] = biological target: human recombinant sGC enzyme (Homo sapiens (Human), UniProt Q02108+Q02153); assay: Size Exclusion Chromatography (SEC) competition binding assay using [3H] Ex-77B as the radioligand; details: [3H] Ex-77B radioligand, 24 hours at 37° C.
How it was run: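 Recombinant human sGC binding measured by competition against tritiated Ex-77B radioligand, with non-specific binding defined by 1 μM unlabeled Ex-77B.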

sGC α1/β1 heterodimer = sGC α1/β1 heterodimer (Homo sapiens (Human), UniProt Q02108+Q02153); assay: Cell-based sGC functional assay (cyclic GMP assay for sGC activator: CASA assay); details: CHO-K1/sGC cells; for Emax: CHO-K1, activity expressed as percentage of compound A (standard), read-out: % Activation; for EC50: inflection point, 4P fit, read-out: IP
How it was run: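 CHO-K1 cells stably expressing sGC α1/β1 were pre-incubated with or without 1 μM DETA-NO (30 min, 25 °C), then exposed to compounds for 1 hr at 37 °C with 0.5 mM IBMX. Intracellular cGMP was read by HTRF and expressed as a percentage of a reference heme-dependent activator's maximum.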

SMILES | Category: decrease in SBP (at minimum decrease in PAP of ≥15 mmHg) ([1]; Dose IT 0.03 mpk) | Ki [2] [nM] | Emax (sGC α1/β1 heterodimer) [%] | EC50 (sGC α1/β1 heterodimer) [nM] | Category: decrease in SBP (at minimum decrease in PAP of ≥15 mmHg) ([1]; Dose IT 0.01 mpk) | Category: decrease in SBP (at minimum decrease in PAP of ≥15 mmHg) ([1]; Dose IT 0.1 mpk)
CC(C)(Cc1csc([C@]2(C)C(=O)Nc3nc(-c4nn(Cc5ccccc5F)c5cc(Cl)ccc45)nc(N)c32)n1)C(=O)O [Example 95B, (S)-3-(2-{4-amino-2-[6-chloro-1-(2-fluorobenzyl)-1H-indazol-3-yl]-5-methyl-6-oxo-6,7-dihydro-5H-pyrrolo[2,3-d]pyrimidin-5-yl}-1,3-thiazol-4-yl)-2,2-dimethylpropanoic acid] | A (decrease in SBP 0-5 mmHg) | 0.06 | 118 | 157 |  | 
CC(C)(Cc1coc(C2(C)C(=O)Nc3nc(-c4nn(CC5CCCCC5)c5cc(F)ccc45)nc(N)c32)n1)C(=O)O (centres unmarked) [Example 202A, 3-(2-{4-amino-2-[1-(cyclohexyl-methyl)-6-fluoro-1H-indazol-3-yl]-5-methyl-6-oxo-6,7-dihydro-5H-pyrrolo[2,3-d]pyrimidin-5-yl}-1,3-oxazol-4-yl)-2,2-dimethyl-propanoic acid] |  | 0.186 | 122 | 212 | A (decrease in SBP 0-5 mmHg) | 
CC(C)(Cc1csc([C@]2(C)C(=O)Nc3nc(-c4nn(Cc5cccc(F)c5)c5ccccc45)nc(N)c32)n1)C(=O)O [Example 222A, (S)-3-(2-{4-amino-2-[1-(3-fluoro-benzyl)-1H-indazol-3-yl]-5-methyl-6-oxo-6,7-dihydro-5H-pyrrolo[2,3-d]pyrimidin-5-yl}-1,3-thiazol-4-yl)-2,2-dimethyl-propanoic acid] |  | 0.112 | 105 | 71 | B (decrease in SBP 5-10 mmHg) | 
CC1(c2cn(CCC(=O)O)nn2)C(=O)Nc2nc(-c3nn(CCC(F)(F)C(F)(F)F)c4ncccc34)nc(N)c21 (centres unmarked) [Example 12B, 3-(4-{4-amino-5-methyl-6-oxo-2-[1-(3,3,4,4,4-pentafluorobutyl)-1H-pyrazolo[3,4-b]pyridin-3-yl]-6,7-dihydro-5H-pyrrolo[2,3-d]pyrimidin-5-yl}-1H-1,2,3-triazol-1-yl)propanoic acid] |  | 2.04 | 81 | 2880 |  | B (decrease in SBP 5-10 mmHg)
CC1(c2ccc(CCC(=O)O)cn2)C(=O)Nc2nc(-c3nn(CCC(F)(F)C(F)(F)F)c4cc(Cl)ccc34)nc(N)c21 (centres unmarked) [Example 119B, 3-(6-{4-Amino-2-[6-chloro-1-(3,3,4,4,4-pentafluorobutyl)-1H-indazol-3-yl]-5-methyl-6-oxo-6,7-dihydro-5H-pyrrolo[2,3-d]pyrimidin-5-yl}pyridin-3-yl)propanoic acid] | A (decrease in SBP 0-5 mmHg) | 0.292 | 103 | 839 |  | 
CC1(c2nc(CCC(=O)O)c[nH]2)C(=O)Nc2nc(-c3nn(Cc4ccccc4F)c4cc(Cl)ccc34)nc(N)c21 (centres unmarked) [Example 235B, 3-(2-{4-Amino-2-[6-chloro-1-(2-fluorobenzyl)-1H-indazol-3-yl]-5-methyl-6-oxo-6,7-dihydro-5H-pyrrolo[2,3-d]pyrimidin-5-yl}-1H-imidazol-4-yl)propanoic acid] |  | 0.404 | 86.8 | 626 | A (decrease in SBP 0-5 mmHg) | 
C[C@@]1(c2ccc(CCC(=O)O)cc2)C(=O)Nc2nc(-c3nn(CC4CCCC4)c4cc(Cl)ccc34)nc(N)c21 [Example 160B, (S)-3-(4-{4-amino-2-[6-chloro-1-(cyclopentylmethyl)-1H-indazol-3-yl]-5-methyl-6-oxo-6,7-dihydro-5H-pyrrolo[2,3-d]pyrimidin-5-yl}phenyl)propanoic acid] |  | 0.062 | 108 | 111 | B (decrease in SBP 5-10 mmHg) | 
C[C@@]1(c2ccc(CCC(=O)O)cc2)C(=O)Nc2nc(-c3nn(CC4CC(F)(F)C4)c4cc(Cl)ccc34)nc(N)c21 [Example 163B, (S)-3-{4-[4-amino-2-{6-chloro-1-[(3,3-difluorocyclo-butyl)methyl]-1H-indazol-3-yl}-5-methyl-6-oxo-6,7-dihydro-5H-pyrrolo[2,3-d]pyrimidin-5-yl]phenyl}propanoic acid] | C (decrease in SBP>10 mmHg) | 1.85 | 90.8 | 408 |  | 
CC(C)(Cc1csc([C@]2(C)C(=O)Nc3nc(-c4nn(Cc5ncccc5F)c5cc(Cl)ccc45)nc(N)c32)n1)C(=O)O [Example 185A, (S)-3-{2-[4-amino-2-{6-chloro-1-[(3-fluoropyridin-2-yl)methyl]-1H-indazol-3-yl}-5-methyl-6-oxo-6,7-dihydro-5H-pyrrolo[2,3-d]pyrimidin-5-yl]-1,3-thiazol-4-yl}-2,2-dimethyl-propanoic acid] |  | 0.165 | 110 | 426 | A (decrease in SBP 0-5 mmHg) | 
CC(C)(Cc1coc(C2(C)C(=O)Nc3nc(-c4nn(Cc5ccccc5F)c5cc(Cl)ccc45)nc(N)c32)n1)c1nn[nH]n1 (centres unmarked) [Example 239A, 4-amino-2-[6-chloro-1-(2-fluorobenzyl)-1H-indazol-3-yl]-5-methyl-5-{4-[2-methyl-2-(2H-tetrazol-5-yl)propyl]-1,3-oxazol-2-yl}-5,7-dihydro-6H-pyrrolo[2,3-d] pyrimidin-6-one] |  | 0.068 | 62.3 | 350 | A (decrease in SBP 0-5 mmHg) | 
C[C@@]1(c2ccc(CCC(=O)O)cc2)C(=O)Nc2nc(-c3nn(Cc4ccccc4F)c4cc(Cl)ccc34)nc(N)c21 [Example 47B, (S)-3-(4-{4-amino-2-[6-chloro-1-(2-fluorobenzyl)-1H-indazol-3-yl]-5-methyl-6-oxo-6,7-dihydro-5H-pyrrolo[2,3-d]pyrimidin-5-yl}phenyl)propanoic acid] | A (decrease in SBP 0-5 mmHg) | 0.114 | 88 | 218 |  | 
CC(C)(Cc1cccc(C2(C)C(=O)Nc3nc(-c4nn(CCC(F)(F)C(F)(F)F)c5ncccc45)nc(N)c32)c1)C(=O)O (centres unmarked) [Example 11B, 3-(3-{4-Amino-5-methyl-6-oxo-2-[1-(3,3,4,4,4-pentafluorobutyl)-1H-pyrazolo[3,4-b]pyridin-3-yl]-6,7-dihydro-5H-pyrrolo[2,3-d]pyrimidin-5-yl}phenyl)-2,2-dimethylpropanoic acid] | B (decrease in SBP 5-10 mmHg) | 0.304 | 99 | 537 |  | 
CC(C)(Cc1coc(C2(C)C(=O)Nc3nc(-c4nn(Cc5ccccc5F)c5cc(Cl)ccc45)nc(N)c32)n1)C(=O)O (centres unmarked) [Example 3A, 3-(2-{4-amino-2-[6-chloro-1-(2-fluorobenzyl)-1H-indazol-3-yl]-5-methyl-6-oxo-6,7-dihydro-5H-pyrrolo[2,3-d]pyrimidin-5-yl)oxazol-4-yl}-2,2-dimethyl-propanoic acid] |  | 0.067 | 126 | 183 | A (decrease in SBP 0-5 mmHg) | 
C[C@@]1(c2ccc(CCc3nn[nH]n3)cc2)C(=O)Nc2nc(-c3nn(Cc4ccccc4F)c4cc(Cl)ccc34)nc(N)c21 [Example 112B, (S)-4-Amino-2-[6-chloro-1-(2-fluorobenzyl)-1H-indazol-3-yl]-5-methyl-5-{4-[2-(2H-tetrazol-5-yl)ethyl]phenyl}-5,7-dihydro-6H-pyrrolo[2,3-d]pyrimidin-6-one] |  | 0.066 | 130 | 2520 | A (decrease in SBP 0-5 mmHg) | 
